Experimental data: patent US20260364145A1, “MODIFIED CAVEOLIN-1 PEPTIDE FORMULATIONS AND METHODS OF MANUFACTURING AND USE THEREOF” (REIN THERAPEUTICS, INC., priority 2023, published 2026)
Several values for one entry are separate records, joined by “and”; a condition that tells them apart may be missing. Identical values can stand only once. Like-named read-outs stand apart in the source and are kept apart here. Non-standard residues stand in square brackets, D forms with d. Residues, ends and D or L forms follow the SMILES beside them.

Legend:
[1] = Plasma pharmacokinetics after single-dose subcutaneous administration; type: in vivo, rat (Sprague Dawley); conditions: for plasma concentration / concentration at 1 h / concentration at 2 h / concentration at 4 h / concentration at 8 h / concentration at 24 h / concentration at 48 h / concentration at 96 h / concentration at 168 h / concentration at 240 h / concentration at 336 h / concentration at 528 h / concentration at 696 h / concentration at 840 h / concentration at 1008 h: SC 2.0 mg/kg, 2 mg/kg; for concentration at 1 h / concentration at 2 h / concentration at 4 h / concentration at 8 h / concentration at 24 h / concentration at 48 h / concentration at 96 h / concentration at 168 h / concentration at 240 h / concentration at 336 h / concentration at 528 h / concentration at 696 h / concentration at 840 h / concentration at 1008 h: rat, plasma, sc
[2] = APi2355 concentrations in BALF and tissues at 42 days post-treatment (LC/MS/MS); type: in vivo, rat (Sprague Dawley); conditions: for BALF concentration / Heart concentration / Kidney concentration / Liver concentration / Lung concentration / Skin concentration: SC 2.0 mg/kg, listed as APi2335, 2 mg/kg, 60480 min; for concentration at 1008 h: rat, sc, 2 mg/kg
Aqueous solubility = type: physicochemical
[3] = individual rats, Group 1, MSP #3 (W/O/W)
[4] = individual rats, Group 2, MSP #5 (S/O/W)

plasma concentration ([1]; 1 hr, individual rats, Group 1, MSP #3 (W/O/W), 60 min): 16.02 ng/mL and 311.08 ng/mL
plasma concentration ([1]; 2 hr, individual rats, Group 1, MSP #3 (W/O/W), 120 min): 350.92 ng/mL and 558.41 ng/mL
plasma concentration ([1]; 4 hr, individual rats, Group 1, MSP #3 (W/O/W), 240 min): 501.64 ng/mL and 36.54 ng/mL
plasma concentration ([1]; 8 hr, individual rats, Group 1, MSP #3 (W/O/W), 480 min): 39.13 ng/mL and 12.62 ng/mL
plasma concentration ([1]; 1 day, individual rats, Group 1, MSP #3 (W/O/W), 1440 min): 34.98 ng/mL and 10.17 ng/mL
plasma concentration ([1]; 2 day, individual rats, Group 1, MSP #3 (W/O/W), 2880 min): 3.46 ng/mL
plasma concentration ([1]; 4 day, individual rats, Group 1, MSP #3 (W/O/W), 5760 min): 1.90 ng/mL
plasma concentration ([1]; 7 day, individual rats, Group 1, MSP #3 (W/O/W), 10080 min): 5.66 ng/mL
plasma concentration ([1]; 10 day, individual rats, Group 1, MSP #3 (W/O/W), 14400 min): 2.17 ng/mL
plasma concentration ([1]; 14 day, individual rats, Group 1, MSP #3 (W/O/W), 20160 min): 6.77 ng/mL and 6.89 ng/mL
plasma concentration ([1]; 22 day, individual rats, Group 1, MSP #3 (W/O/W), 31680 min): 7.52 ng/mL and 9.84 ng/mL
plasma concentration ([1]; 29 day, individual rats, Group 1, MSP #3 (W/O/W), 41760 min): 0.91 ng/mL and 1.57 ng/mL
plasma concentration ([1]; 35 day, individual rats, Group 1, MSP #3 (W/O/W), 50400 min): 0.32 ng/mL and 0.48 ng/mL
plasma concentration ([1]; 42 day, individual rats, Group 1, MSP #3 (W/O/W), 60480 min): 0.11 ng/mL and 4.85 ng/mL
fraction of total exposure in the first 3 weeks after SC administration ([1]; first 3 weeks, SC 2.0 mg/kg APi2355): Approximately ⅔
concentration at 1 h ([1]; 1 hr, mean, Group 1, MSP #3 (W/O/W)): 157 ng/mL
concentration at 1 h ([1]; 1 hr, mean, Group 2, MSP #5 (S/O/W)): 175 ng/mL
concentration at 2 h ([1]; 2 hr, mean, Group 1, MSP #3 (W/O/W)): 198 ng/mL
concentration at 2 h ([1]; 2 hr, mean, Group 2, MSP #5 (S/O/W)): 287 ng/mL
concentration at 4 h ([1]; 4 hr, mean, Group 1, MSP #3 (W/O/W)): 185 ng/mL
concentration at 4 h ([1]; 4 hr, mean, Group 2, MSP #5 (S/O/W)): 195 ng/mL
concentration at 8 h ([1]; 8 hr, mean, Group 1, MSP #3 (W/O/W)): 195 ng/mL
concentration at 8 h ([1]; 8 hr, mean, Group 2, MSP #5 (S/O/W)): 130 ng/mL
concentration at 24 h ([1]; 1 day, mean, Group 1, MSP #3 (W/O/W)): 10.7 ng/mL
concentration at 24 h ([1]; 1 day, mean, Group 2, MSP #5 (S/O/W)): 9.53 ng/mL
concentration at 48 h ([1]; 2 day, mean, Group 1, MSP #3 (W/O/W)): 3.2 ng/mL
concentration at 48 h ([1]; 2 day, mean, Group 2, MSP #5 (S/O/W)): 5.23 ng/mL
concentration at 96 h ([1]; 4 day, mean, Group 1, MSP #3 (W/O/W)): 3.22 ng/mL
concentration at 96 h ([1]; 4 day, mean, Group 2, MSP #5 (S/O/W)): 3.69 ng/mL
concentration at 168 h ([1]; 7 day, mean, Group 1, MSP #3 (W/O/W)): 3.34 ng/mL
concentration at 168 h ([1]; 7 day, mean, Group 2, MSP #5 (S/O/W)): 3.37 ng/mL
concentration at 240 h ([1]; 10 day, mean, Group 1, MSP #3 (W/O/W)): 5.22 ng/mL
concentration at 240 h ([1]; 10 day, mean, Group 2, MSP #5 (S/O/W)): 10.5 ng/mL
concentration at 336 h ([1]; 14 day, individual rats, Group 2, MSP #5 (S/O/W), read-out: plasma concentration): 0.98 ng/mL
concentration at 336 h ([1]; 14 day, mean, Group 1, MSP #3 (W/O/W), read-out: plasma concentration, Avg.): 5.41 ng/mL
concentration at 336 h ([1]; 14 day, mean, Group 2, MSP #5 (S/O/W), read-out: plasma concentration, Avg.): 1.14 ng/mL
concentration at 528 h ([1]; 22 day, mean, Group 1, MSP #3 (W/O/W)): 6.35 ng/mL
concentration at 528 h ([1]; 22 day, mean, Group 2, MSP #5 (S/O/W)): 5.26 ng/mL
concentration at 696 h ([1]; 29 day, mean, Group 1, MSP #3 (W/O/W)): 2.53 ng/mL
concentration at 696 h ([1]; 29 day, mean, Group 2, MSP #5 (S/O/W)): 2 ng/mL
concentration at 840 h ([1]; 35 day, mean, Group 1, MSP #3 (W/O/W)): 0.57 ng/mL
concentration at 840 h ([1]; 35 day, mean, Group 2, MSP #5 (S/O/W)): 0.26 ng/mL
concentration at 1008 h ([1]; 42 day, mean, Group 1, MSP #3 (W/O/W)): 1.2 ng/mL
concentration at 1008 h ([1]; 42 day, mean, Group 2, MSP #5 (S/O/W)): 0.72 ng/mL
concentration at 1008 h ([2]; balf, mean, Group 1, MSP #3 (W/O/W), read-out: BALF concentration, Avg.): 2.11 ng/mL
concentration at 1008 h ([2]; balf, mean, Group 2, MSP #5 (S/O/W), read-out: BALF concentration, Avg.): 1.27 ng/mL
concentration at 1008 h ([2]; heart, mean, Group 1, MSP #3 (W/O/W), read-out: Heart concentration, Avg.): 9.35 ng/g
concentration at 1008 h ([2]; heart, mean, Group 2, MSP #5 (S/O/W), read-out: Heart concentration, Avg.): 12.9 ng/g
concentration at 1008 h ([2]; injection site skin, injection site skin, mean, Group 1, MSP #3 (W/O/W), read-out: Skin concentration, Avg.): 18.6 ng/g
concentration at 1008 h ([2]; injection site skin, injection site skin, mean, Group 2, MSP #5 (S/O/W), read-out: Skin concentration, Avg.): 4.93 ng/g
concentration at 1008 h ([2]; kidney, individual rats, Group 2, MSP #5 (S/O/W), read-out: Kidney concentration): 33.1 ng/g
concentration at 1008 h ([2]; kidney, mean, Group 1, MSP #3 (W/O/W), read-out: Kidney concentration, Avg.): 55.7 ng/g
concentration at 1008 h ([2]; kidney, mean, Group 2, MSP #5 (S/O/W), read-out: Kidney concentration, Avg.): 38.2 ng/g
concentration at 1008 h ([2]; liver, mean, Group 1, MSP #3 (W/O/W), read-out: Liver concentration, Avg.): 2.62 ng/g
concentration at 1008 h ([2]; liver, mean, Group 2, MSP #5 (S/O/W), read-out: Liver concentration, Avg.): 4.09 ng/g
concentration at 1008 h ([2]; lung, individual rats, Group 2, MSP #5 (S/O/W), read-out: Lung concentration): 35.9 ng/g
concentration at 1008 h ([2]; lung, mean, Group 1, MSP #3 (W/O/W), read-out: Lung concentration, Avg.): 40.3 ng/g
concentration at 1008 h ([2]; lung, mean, Group 2, MSP #5 (S/O/W), read-out: Lung concentration, Avg.): 38.1 ng/g
aqueous solubility (Aqueous solubility): relatively low aqueous solubility
SMILES: CC(=O)N[C@H](C)C(=O)N[C@H](C)C(=O)N[C@@H](CCC(=O)O)C(=O)NCC(=O)N[C@@H](CCCCN)C(=O)N[C@@H](C)C(=O)N[C@@H](CO)C(=O)N[C@@H](Cc1ccccc1)C(=O)N[C@H](C(=O)N[C@H](C(=O)N[C@@H](Cc1ccccc1)C(=O)N[C@H](C(=O)N[C@H](C(=O)N[C@H](C(=O)N[C@@H](CCCCN)C(=O)NCC(=O)N[C@@H](CO)C(=O)N[C@H](C)C(=O)N[C@H](C)C(N)=O)[C@@H](C)O)C(C)C)[C@@H](C)O)[C@@H](C)O)[C@@H](C)O [APi2355, Ac-aaEGKASFTTFTVTKGSaa-NH2] (Ac-[dA][dA]EGKASFTTFTVTKGS[dA][dA]-NH2)
BALF concentration [2, 3]: 5.67 ng/mL and 1.45 ng/mL and 1.89 ng/mL and 1.47 ng/mL and 0.63 ng/mL and 1.53 ng/mL
Heart concentration [2, 3]: 10.46 ng/g and 13.81 ng/g and 8.97 ng/g and 11.09 ng/g and 3.41 ng/g and 8.39 ng/g
Kidney concentration [2, 3]: 63.91 ng/g and 53.55 ng/g and 30.02 ng/g and 62.91 ng/g and 57.32 ng/g and 66.29 ng/g
Liver concentration [2, 3]: 5.46 ng/g and 1.23 ng/g and 0.69 ng/g and 1.85 ng/g and 3.65 ng/g and 2.86 ng/g
Lung concentration [2, 3]: 37.40 ng/g and 29.17 ng/g and 36.51 ng/g and 62.92 ng/g and 36.86 ng/g and 38.80 ng/g
BALF concentration [2, 4]: 0.45 ng/mL and 0.23 ng/mL and 0.70 ng/mL and 0.52 ng/mL and 4.10 ng/mL and 2.17 ng/mL and 0.71 ng/mL
Heart concentration [2, 4]: 14.37 ng/g and 14.17 ng/g and 9.32 ng/g and 7.53 ng/g and 15.87 ng/g and 12.57 ng/g and 16.18 ng/g
Kidney concentration [2, 4]: 31.78 ng/g and 41.08 ng/g and 52.67 ng/g and 38.43 ng/g and 33.98 ng/g and 36.28 ng/g
Liver concentration [2, 4]: 8.34 ng/g and 8.26 ng/g and 0.24 ng/g and 0.47 ng/g and 1.33 ng/g and 4.81 ng/g and 5.22 ng/g
Lung concentration [2, 4]: 35.15 ng/g and 31.08 ng/g and 28.00 ng/g and 53.76 ng/g and 47.20 ng/g and 35.92 ng/g
Skin concentration ([2]; injection site skin, individual rats, Group 1, MSP #3 (W/O/W)): 29.72 ng/g and 13.12 ng/g and 14.02 ng/g and 20.81 ng/g and 2.28 ng/g and 31.92 ng/g
Skin concentration ([2]; injection site skin, individual rats, Group 2, MSP #5 (S/O/W)): 4.08 ng/g and 4.10 ng/g and 2.92 ng/g and 3.69 ng/g and 3.40 ng/g and 14.71 ng/g and 1.60 ng/g
